One experiment addresses T1, human TLR8 (Homo sapiens, UniProt Q9NR97).
T1 construct: host or cells: HEK-Blue cells
T1 sequence (Q9NR97 27-1041): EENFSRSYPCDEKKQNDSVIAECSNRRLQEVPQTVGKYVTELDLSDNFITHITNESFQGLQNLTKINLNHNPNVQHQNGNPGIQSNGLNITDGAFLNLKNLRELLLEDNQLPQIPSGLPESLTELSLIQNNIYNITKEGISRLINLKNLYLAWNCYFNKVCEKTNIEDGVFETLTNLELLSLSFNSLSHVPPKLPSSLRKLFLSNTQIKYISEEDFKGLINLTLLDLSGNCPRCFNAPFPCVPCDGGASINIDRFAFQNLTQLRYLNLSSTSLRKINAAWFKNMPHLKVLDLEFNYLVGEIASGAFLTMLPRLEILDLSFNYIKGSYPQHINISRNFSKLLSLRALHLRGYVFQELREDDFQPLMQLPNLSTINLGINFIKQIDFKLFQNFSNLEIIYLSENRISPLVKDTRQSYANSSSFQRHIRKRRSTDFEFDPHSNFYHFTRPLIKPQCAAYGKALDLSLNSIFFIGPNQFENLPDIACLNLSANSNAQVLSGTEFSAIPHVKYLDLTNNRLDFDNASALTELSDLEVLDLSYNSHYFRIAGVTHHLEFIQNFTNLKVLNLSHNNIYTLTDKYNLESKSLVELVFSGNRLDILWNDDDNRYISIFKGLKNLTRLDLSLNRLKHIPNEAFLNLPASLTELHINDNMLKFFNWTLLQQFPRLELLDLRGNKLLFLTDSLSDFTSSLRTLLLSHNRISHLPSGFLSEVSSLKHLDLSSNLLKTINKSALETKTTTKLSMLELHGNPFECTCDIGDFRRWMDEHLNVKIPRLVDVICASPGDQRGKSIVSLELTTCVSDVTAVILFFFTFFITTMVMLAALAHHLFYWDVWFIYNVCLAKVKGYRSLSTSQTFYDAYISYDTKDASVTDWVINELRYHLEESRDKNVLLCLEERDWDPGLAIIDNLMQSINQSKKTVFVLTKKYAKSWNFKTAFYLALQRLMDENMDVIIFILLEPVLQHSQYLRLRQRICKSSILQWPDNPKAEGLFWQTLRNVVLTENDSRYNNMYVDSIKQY
The experiment is described as follows: TLR8 inhibition reporter assay (HEK-Blue cells, SEAP reporter). Format: cell-based. The conditions noted are these: HEK-Blue cells overexpressing human TLR8, stimulated with R848 15.9 μM, 22 hour incubation. In outline:
(§1)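 Dose–response from 0.05 nM to 50 μM was run in HEK-Blue human TLR7, TLR8 and TLR9 reporter cells. After 30 min at room temperature with compound, ligand was added (TLR7 gardiquimod 7.5 μM; TLR8 R848 15.9 μM; TLR9 ODN2006 5 nM) and SEAP measured next day, at 22 h.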

For a further experiment, the target named is T2, human TLR7 (Homo sapiens, UniProt Q9NYK1).
T2 construct: host or cells: HEK-Blue cells
T2 sequence (Q9NYK1 27-1049): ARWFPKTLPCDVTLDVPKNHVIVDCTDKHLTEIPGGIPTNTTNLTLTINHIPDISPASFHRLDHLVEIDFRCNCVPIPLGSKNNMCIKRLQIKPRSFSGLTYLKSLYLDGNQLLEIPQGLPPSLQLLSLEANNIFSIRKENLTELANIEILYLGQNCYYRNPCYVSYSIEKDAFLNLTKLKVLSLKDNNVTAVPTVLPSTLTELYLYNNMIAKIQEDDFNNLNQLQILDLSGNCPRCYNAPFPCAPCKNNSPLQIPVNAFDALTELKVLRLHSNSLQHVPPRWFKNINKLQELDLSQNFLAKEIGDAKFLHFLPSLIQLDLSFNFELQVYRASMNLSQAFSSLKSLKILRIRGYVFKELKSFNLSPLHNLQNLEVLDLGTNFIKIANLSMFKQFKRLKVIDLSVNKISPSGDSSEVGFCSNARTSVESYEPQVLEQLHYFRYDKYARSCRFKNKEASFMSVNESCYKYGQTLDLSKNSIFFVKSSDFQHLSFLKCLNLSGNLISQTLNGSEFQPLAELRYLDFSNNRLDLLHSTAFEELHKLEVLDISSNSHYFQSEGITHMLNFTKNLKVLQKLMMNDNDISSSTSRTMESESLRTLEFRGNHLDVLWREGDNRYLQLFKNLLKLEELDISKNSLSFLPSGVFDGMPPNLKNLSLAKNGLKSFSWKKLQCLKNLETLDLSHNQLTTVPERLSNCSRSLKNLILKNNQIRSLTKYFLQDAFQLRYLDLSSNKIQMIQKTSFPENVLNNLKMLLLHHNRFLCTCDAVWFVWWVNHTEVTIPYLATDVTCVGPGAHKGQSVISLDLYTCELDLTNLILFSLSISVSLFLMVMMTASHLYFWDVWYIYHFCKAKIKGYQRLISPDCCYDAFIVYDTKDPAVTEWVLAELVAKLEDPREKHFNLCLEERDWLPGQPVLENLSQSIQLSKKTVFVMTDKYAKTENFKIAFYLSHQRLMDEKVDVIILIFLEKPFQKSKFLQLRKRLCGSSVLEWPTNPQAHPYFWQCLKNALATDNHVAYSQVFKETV
The experiment is described as follows: TLR7 inhibition reporter assay (HEK-Blue cells, SEAP reporter). The settings on record: HEK-Blue cells overexpressing human TLR7, stimulated with gardiquimod 7.5 μM, 22 hour incubation. It is filed as cell-based. The essentials:
as §1

Consider 15 compounds from US12590091B2, “1H-pyrrolo[3,2-C]pyridine and 1H-pyrrolo[2,3-C]pyridine derivatives as TLR9 inhibitors for the treatment of fibrosis” (BRISTOL-MYERS SQUIBB COMPANY, priority 2020, dated 2026).

In the case of `Cc1nc(-c2ccc(C3(O)CCN(C(C)C)CC3)c(F)c2)cc2c1cc(-c1ccc(S(C)(=O)=O)cc1)n2C` [Example 107, 4-(4-(1,4-dimethyl-2-(4-(methylsulfonyl)phenyl)-1H-pyrrolo[3,2-c]pyridin-6-yl)-2-fluorophenyl)-1-isopropylpiperidin-4-ol], the values for the IC50 against human TLR8 and against human TLR7 were 2.7 µM and 2.1 µM, respectively.
The corresponding values for `Cc1nc(-c2ccc(C3(O)CCN(C(C)(C)C)CC3)cc2F)cc2c1cc(-c1ccc(S(C)(=O)=O)cc1)n2C` [Example 108, 1-(tert-butyl)-4-(4-(1,4-dimethyl-2-(4-(methylsulfonyl)phenyl)-1H-pyrrolo[3,2-c]pyridin-6-yl)-3-fluorophenyl)piperidin-4-ol] are 1.5 µM and 1.7 µM.
The corresponding values for `Cc1nc(-c2ccc(C3(O)CCN(C(C)C)CC3)cc2F)cc2c1cc(-c1ccc(S(C)(=O)=O)cc1)n2C` [Example 109, 4-(4-(1,4-dimethyl-2-(4-(methylsulfonyl)phenyl)-1H-pyrrolo[3,2-c]pyridin-6-yl)-3-fluorophenyl)-1-isopropylpiperidin-4-ol] are 1.1 µM and 1.3 µM.
The corresponding values for `Cc1nc(C2CCN(C3CC4CCC(C3)N4CC(C)C)CC2)cc2c1cc(-c1ccc(S(C)(=O)=O)cc1)n2C` (stereo not drawn) [Example 114, 6-(1-(8-isobutyl-8-azabicyclo[3.2.1]octan-3-yl)piperidin-4-yl)-1,4-dimethyl-2-(4-(methylsulfonyl)phenyl)-1H-pyrrolo[3,2-c]pyridine] are greater than 50 µM and 14.2 µM.
On to `Cc1nc(-c2ccc(CN3CCN(CCC(C)(C)O)CC3)cc2)cc2c1c(F)c(-c1ccc(S(C)(=O)=O)cc1)n2C` [Example 115, 4-(4-(4-(3-fluoro-1,4-dimethyl-2-(4-(methylsulfonyl)phenyl)-1H-pyrrolo[3,2-c]pyridin-6-yl)benzyl)piperazin-1-yl)-2-methylbutan-2-ol], for which the IC50 at human TLR8 worked out at 2.1 µM; on human TLR7, 16 µM.
`Cc1nc(-c2ccc(CN3CCN(CCC(C)(C)O)CC3)cc2)cc2c1cc(-c1ccc(S(C)(=O)=O)cc1)n2C1CC1` [Example 116, 4-[4-[[4-[1-cyclopropyl-4-methyl-2-(4-methylsulfonylphenyl)pyrrolo[3,2-c]pyridin-6-yl]phenyl]methyl]piperazin-1-yl]-2-methyl-butan-2-ol]: the IC50 against human TLR8 was determined as 19 µM; against human TLR7 it was 3.2 µM.
The matching figures for `CC(C)N1CCN(c2ccc(-c3cc4c(cc(-c5ccc(S(C)(=O)=O)cc5)n4C)c(C(C)(C)O)n3)cc2)CC1` [Example 118, 2-[6-[4-(4-isopropylpiperazin-1-yl)phenyl]-1-methyl-2-(4-methylsulfonylphenyl)pyrrolo[3,2-c]pyridin-4-yl]propan-2-ol]: 8.1 µM and 1.7 µM.
The corresponding values for `CC(C)(O)CN1C2CCC1CN(Cc1ccc(-c3cc4c(cn3)cc(-c3ccc(S(C)(=O)=O)cc3)n4C3CC3)cc1)C2` [Example 121, 1-[3-[[4-[1-cyclopropyl-2-(4-methylsulfonylphenyl)pyrrolo[3,2-c]pyridin-6-yl]phenyl]methyl]-3,8-diazabicyclo[3.2.1]octan-8-yl]-2-methyl-propan-2-ol] are greater than 50 µM and 0.6 µM.
For `Cc1nc(-c2ccc(CN3CCN(CC(C)(C)O)CC3)cc2)cc2c1c(F)c(-c1ccc(S(C)(=O)=O)cc1)n2C` [Example 122, 1-(4-(4-(3-fluoro-1,4-dimethyl-2-(4-(methylsulfonyl)phenyl)-1H-pyrrolo[3,2-c]pyridin-6-yl)benzyl)piperazin-1-yl)-2-methylpropan-2-ol], the IC50 against human TLR8 was 3.7 µM; on human TLR7 it was 17.1 µM.
The matching figures for `Cc1nc(-c2ccc(CN3CCN(CC(C)(C)O)CC3)cc2)cc2c1cc(-c1ccc(S(C)(=O)=O)cc1)n2C1CC1` [Example 123, 1-(4-(4-(1-cyclopropyl-4-methyl-2-(4-(methylsulfonyl)phenyl)-1H-pyrrolo[3,2-c]pyridin-6-yl)benzyl)piperazin-1-yl)-2-methylpropan-2-ol]: 17.6 µM and 3.7 µM.
The matching figures for `Cc1nc(-c2ccc(CN3CCN(CC(C)(C)O)CC3)cc2)cc2c1cc(-c1ccc(S(C)(=O)=O)cc1)n2C(F)F` [Example 124, 1-(4-(4-(1-(difluoromethyl)-4-methyl-2-(4-(methylsulfonyl)phenyl)-1H-pyrrolo[3,2-c]pyridin-6-yl)benzyl)piperazin-1-yl)-2-methylpropan-2-ol]: greater than 50 µM and greater than 50 µM.
The corresponding values for `CC(C)N1CCN(Cc2ccc(-c3cc4c(cc(-c5ccc(S(C)(=O)=O)cc5)n4C)c(C(C)(C)O)n3)cc2)CC1` [Example 125, 2-(6-(4-((4-isopropylpiperazin-1-yl)methyl)phenyl)-1-methyl-2-(4-(methylsulfonyl)phenyl)-1H-pyrrolo[3,2-c]pyridin-4-yl)propan-2-ol] are 11.3 µM and 3.1 µM.
For `CC(C)(O)CN1CCN(Cc2ccc(-c3cc4c(cn3)cc(-c3ccc(S(C)(=O)=O)cc3)n4C3CC3)cc2)CC1` [Example 128, 1-(4-(4-(1-cyclopropyl-2-(4-(methylsulfonyl)phenyl)-1H-pyrrolo[3,2-c]pyridin-6-yl)benzyl)piperazin-1-yl)-2-methylpropan-2-ol], the figures for the IC50 against human TLR8 and against human TLR7 were 7.9 µM and 2.8 µM, respectively.
The corresponding values for `CC(C)(O)CCN1CCN(Cc2ccc(-c3cc4c(cn3)cc(-c3ccc(S(C)(=O)=O)cc3)n4C3CC3)cc2)CC1` [Example 129, 4-(4-(4-(1-cyclopropyl-2-(4-(methylsulfonyl)phenyl)-1H-pyrrolo[3,2-c]pyridin-6-yl)benzyl)piperazin-1-yl)-2-methylbutan-2-ol] are 5.6 µM and 3.6 µM.
With `CC(C)(O)CN1CC2CCC(C1)N2Cc1ccc(-c2cc3c(cn2)cc(-c2ccc(S(C)(=O)=O)cc2)n3C2CC2)cc1` [Example 130, 1-(8-(4-(1-cyclopropyl-2-(4-(methylsulfonyl)phenyl)-1H-pyrrolo[3,2-c]pyridin-6-yl)benzyl)-3,8-diazabicyclo[3.2.1]octan-3-yl)-2-methylpropan-2-ol], the IC50 was 6.4 µM against human TLR8 and 1.9 µM against human TLR7.
